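96-well plates; 48 h exposure; 5 concentrations. Endpoints by linear interpolation between flanking doses. Not reached: highest tested concentration assigned. GI50 = concentration required for 50% inhibition of growth.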 The source made the active and inactive calls. No stated cut-off is given here; in the data, active = GI50 up to about 1.1 µM and inactive = higher. Bounds are passed on as bounds.

These results are taken from ChEMBL document CHEMBL1201862, “PubChem BioAssay data set” (2004).

Some test systems named below: OVCAR-5; U-251; SK-MEL-2; SNB-75; DU-145; CAKI-1; COLO 205; NCI-H226; SF-295; T47D; SK-MEL-5; UO-31; HCT-116; SNB-19; LOX IMVI; SK-MEL-28; 786-0; HOP-92; MCF7.
What all share (test): inhibition of tumour cell growth, NCI panel, 48 h

For `Cc1ccc(S(=O)(=O)n2c3ccc(Br)cc3c3nc4ccccc4nc32)cc1`, the GI50 in the test with OVCAR-5, in the test on U-251, with SK-MEL-2, in the test on SNB-75, in the test on DU-145 and in the test with CAKI-1 was > 100 µM (inactive) in each case. The GI50 with COLO 205 was > 100 µM (inactive); in the test on NCI-H226, 0.183 µM (active); with SF-295, > 100 µM (inactive); with T47D, > 100 µM (inactive); in the test with SK-MEL-5, > 100 µM (inactive); in the test with UO-31, > 100 µM (inactive). For the same compound, the GI50 in the test on HCT-116, in the test with SNB-19, in the test on LOX IMVI, in the test with SK-MEL-28, in the test with 786-0 and in the test with HOP-92 was > 100 µM (inactive) throughout.
For `CC(=O)OC1(C#N)CC2OC1C1C2N1C(=O)c1ccccc1` (configuration not stated), the GI50 in the test on OVCAR-5, in the test with U-251, with SK-MEL-2, in the test with SNB-75, with CAKI-1 and with COLO 205 was > 100 µM (inactive) in each case. In addition, the GI50 in the test with NCI-H226, in the test on SK-MEL-5, with UO-31, in the test with HCT-116, in the test with SNB-19 and in the test on LOX IMVI was > 100 µM (inactive) each time. For the same compound, the GI50 in the test with SK-MEL-28, in the test on 786-0 and with HOP-92 was > 100 µM (inactive) throughout.
On to `COc1ccc(NC(=S)N/N=C/c2c(C)n(C)n(-c3ccccc3)c2=O)cc1`, for which the GI50 with U-251 was 20.4 µM (inactive); with SK-MEL-2 it was 32.1 µM (inactive); with SNB-75, 28 µM (inactive); in the test with CAKI-1 it was 22 µM (inactive); in the test on MCF7 it was 42.7 µM (inactive); in the test on COLO 205 it was > 100 µM (inactive). Also, the GI50 in the test on NCI-H226 was 35.6 µM (inactive); in the test on SF-295, 37.9 µM (inactive); in the test on SK-MEL-5, > 100 µM (inactive); in the test on UO-31, 26.4 µM (inactive); in the test with HCT-116, 77.6 µM (inactive); with SNB-19, 20.5 µM (inactive). In addition, the GI50 in the test with LOX IMVI was > 100 µM (inactive); in the test on SK-MEL-28 it was 64.1 µM (inactive); with 786-0, 24.1 µM (inactive); with HOP-92, 22.2 µM (inactive).
Regarding `Cc1cc(NCCCCCCCNc2cc(C)nc3cc(N)ccc23)c2ccc(N)cc2n1`, the GI50 with OVCAR-5 is > 100 µM (inactive); with U-251 it was 28.1 µM (inactive); in the test with SK-MEL-2 it was 78.3 µM (inactive); in the test on SNB-75, 25.2 µM (inactive); in the test on CAKI-1, > 100 µM (inactive); in the test on COLO 205, 14 µM (inactive). For the same compound, the GI50 with NCI-H226 is 20.4 µM (inactive); in the test with SF-295, 10.3 µM (inactive); in the test with SK-MEL-5, 22.2 µM (inactive); in the test with UO-31, > 100 µM (inactive); in the test on HCT-116, 27.6 µM (inactive); in the test with SNB-19 it was 47.2 µM (inactive). For the same compound, the GI50 is 21.6 µM (inactive) in the test with LOX IMVI, 32.7 µM (inactive) in the test with SK-MEL-28 and > 100 µM (inactive) in the test with 786-0.
On to `COc1cc(C2SCC(=O)N2c2ccccn2)cc(OC)c1OC` (configuration not stated), for which the GI50 is > 100 µM (inactive) in the test with OVCAR-5; > 100 µM (inactive) in the test on U-251; > 100 µM (inactive) in the test with SK-MEL-2; > 100 µM (inactive) with DU-145; > 100 µM (inactive) in the test on CAKI-1; 49.2 µM (inactive) in the test on MCF7. The GI50 is > 100 µM (inactive) in the test with COLO 205; > 100 µM (inactive) with NCI-H226; 81.1 µM (inactive) with SF-295; 55 µM (inactive) in the test with SK-MEL-5; > 100 µM (inactive) in the test with UO-31; 79.6 µM (inactive) in the test with HCT-116. Moreover, the GI50 in the test with SNB-19 is > 100 µM (inactive); in the test with LOX IMVI, > 100 µM (inactive); in the test on SK-MEL-28 it was > 100 µM (inactive); with 786-0 it was > 100 µM (inactive); with HOP-92, 14.2 µM (inactive).
Regarding `CSc1nc2c(c(=O)n1C)N=C(c1ccc([N+](=O)[O-])cc1)CC(c1ccccc1)N2` (configuration not stated), the GI50 is > 100 µM (inactive) in the test with OVCAR-5; > 100 µM (inactive) with U-251; > 100 µM (inactive) in the test on SK-MEL-2; 41.2 µM (inactive) in the test with SNB-75; > 100 µM (inactive) with DU-145; > 100 µM (inactive) with CAKI-1. Further, the GI50 in the test with MCF7 is 49 µM (inactive); with COLO 205, > 100 µM (inactive); in the test with NCI-H226, > 100 µM (inactive); with SF-295, > 100 µM (inactive); in the test with SK-MEL-5, > 100 µM (inactive); in the test with UO-31 it was > 100 µM (inactive). Further, the GI50 in the test with HCT-116 is > 100 µM (inactive); in the test on SNB-19 it was > 100 µM (inactive); with LOX IMVI, 78.9 µM (inactive); in the test with SK-MEL-28, > 100 µM (inactive); in the test on 786-0, > 100 µM (inactive); in the test on HOP-92, > 100 µM (inactive).
Regarding `O=C1C(c2ccc(Br)cc2)=[N+]([O-])c2ccccc21`, the GI50 was 20.8 µM (inactive) in the test on OVCAR-5; 14.7 µM (inactive) in the test with U-251; 11.7 µM (inactive) with SK-MEL-2; 16.6 µM (inactive) with SNB-75; 16.3 µM (inactive) in the test on COLO 205; 13.1 µM (inactive) in the test on NCI-H226. Besides, the GI50 is > 10 µM (inactive) with SF-295; 9.55 µM (inactive) with SK-MEL-5; 14.3 µM (inactive) with UO-31; 14.4 µM (inactive) in the test on HCT-116; 21 µM (inactive) in the test on SNB-19; 8.75 µM (inactive) in the test on LOX IMVI. The results for the GI50 with SK-MEL-28, in the test on 786-0 and in the test on HOP-92 were 20.2 µM (inactive), 17.1 µM (inactive) and 7.21 µM (inactive), respectively.
For `CC(C)(C)OC(=O)N1CCCC1C(=O)NCCNc1ccc(NCCNC(=O)C2CCCN2C(=O)OC(C)(C)C)c2c1C(=O)c1ccccc1C2=O` (configuration not stated), the GI50 in the test on OVCAR-5 was 16.7 µM (inactive); in the test on U-251 it was 18.8 µM (inactive); with SK-MEL-2 it was 20.7 µM (inactive); in the test with SNB-75, 20.4 µM (inactive); in the test on CAKI-1, 18.5 µM (inactive); in the test on MCF7, 16.2 µM (inactive). For the same compound, the GI50 in the test on COLO 205 was 14.4 µM (inactive); with NCI-H226 it was 18.5 µM (inactive); with SF-295, 18 µM (inactive); with SK-MEL-5, 0.112 µM (active); in the test on HCT-116, 13.2 µM (inactive); in the test on SNB-19, < 0.01 µM (active). In addition, the GI50 in the test with LOX IMVI was 12.4 µM (inactive); in the test with SK-MEL-28, 14.3 µM (inactive); in the test with 786-0, 14.8 µM (inactive); in the test with HOP-92 it was 13.8 µM (inactive).
On to `Cc1cccc(Nc2cn(CCOc3ccccc3)c(=O)[nH]c2=O)c1`, for which the GI50 in the test with OVCAR-5 is 19.4 µM (inactive); in the test on U-251 it was 33.7 µM (inactive); in the test with DU-145, 28.5 µM (inactive); in the test on CAKI-1, 41.2 µM (inactive); with MCF7, 35.9 µM (inactive); in the test with COLO 205 it was 18.8 µM (inactive). Further, the GI50 was 49.9 µM (inactive) in the test on SF-295; 25.8 µM (inactive) with SK-MEL-5; 21.4 µM (inactive) with UO-31; 27.5 µM (inactive) with HCT-116; 97.1 µM (inactive) with SNB-19; 11.9 µM (inactive) in the test on LOX IMVI. In addition, the results for the GI50 in the test with SK-MEL-28, with 786-0 and in the test on HOP-92 were 29.5 µM (inactive), 34.2 µM (inactive) and 35.6 µM (inactive), respectively.
For the compound `COc1cccc(N2C(=O)C3c4[nH]c5ccc(C)cc5c4C4CCC(C)CC4C3C2=O)c1` (configuration not stated), the GI50 in the test on OVCAR-5 was > 100 µM (inactive); in the test with U-251, 51.3 µM (inactive); in the test on SK-MEL-2, 24.5 µM (inactive); with DU-145, > 100 µM (inactive); in the test with CAKI-1, 39.5 µM (inactive); with MCF7, > 100 µM (inactive). For the same compound, the GI50 is > 100 µM (inactive) in the test with COLO 205; > 100 µM (inactive) in the test on NCI-H226; 35 µM (inactive) in the test with SF-295; > 100 µM (inactive) in the test on SK-MEL-5; > 100 µM (inactive) with UO-31; > 100 µM (inactive) in the test with HCT-116. The GI50 with SNB-19 is 73.3 µM (inactive); with LOX IMVI, > 100 µM (inactive); in the test on SK-MEL-28, > 100 µM (inactive); in the test with 786-0 it was 26.5 µM (inactive); in the test with HOP-92, 34 µM (inactive).
Consider `COc1ccccc1NC(=S)N/N=C/c1cccc(C)n1`, for which the GI50 in the test with OVCAR-5 was > 27.4 µM (inactive); in the test with U-251, 4.26 µM (inactive); with SK-MEL-2 it was 5.64 µM (inactive); with SNB-75 it was 5.62 µM (inactive); in the test with DU-145, 4.29 µM (inactive); in the test on CAKI-1, 4.75 µM (inactive). Moreover, the GI50 with MCF7 is 3.78 µM (inactive); with COLO 205, 1.68 µM (inactive); in the test on NCI-H226, 5.82 µM (inactive); with SF-295, 4.32 µM (inactive); in the test with SK-MEL-5 it was 4.17 µM (inactive); in the test on UO-31, 3.57 µM (inactive). The GI50 was 3.4 µM (inactive) in the test on HCT-116; 10.9 µM (inactive) in the test on SNB-19; 2.3 µM (inactive) in the test on LOX IMVI; 8.53 µM (inactive) in the test on SK-MEL-28; 2.9 µM (inactive) with 786-0; 8.09 µM (inactive) in the test with HOP-92.
`CC(C)c1cccc(C(C)C)c1NC(=O)C(=O)CC(=O)CC(c1ccccc1)c1c(O)oc2ccccc2c1=O` (configuration not stated): the GI50 with OVCAR-5, in the test with SK-MEL-2, with CAKI-1, with COLO 205, in the test with SF-295 and in the test on SK-MEL-5 was > 100 µM (inactive) each time. Also, the GI50 in the test on UO-31, in the test on HCT-116, in the test on SNB-19, with SK-MEL-28, with 786-0 and with HOP-92 was > 100 µM (inactive) throughout.
